# PMC3189771, “Structure–Activity Relationship of Halophenols as a New Class of Protein Tyrosine Kinase Inhibitors” (International Journal of Molecular Sciences, 2011)
# Assays:
# [1] = molecular target: protein tyrosine kinase (PTK); assay: in vitro PTK inhibitory activity by ELISA (brain cytoplasmic tyrosine kinase extract, PGT substrate); assay type: biochemical, mouse; details: genistein as positive control; for IC50: determined in triplicate
# Description: After removal of the male mouse (SD) meninges, the brain was weighted and homogenized with a glass homogenizer in four volumes of cold medium (containing 20 mmol/L Tris–HCl, pH 7.5, 0.25 mol/L sucrose, 2 mmol/L DDT, 2 mmol/L EDTA, 2 mmol/L Na3VO4, 1 mmol/L DMSF, 215 mg/L aprotinin, 1 mg/L PTIFtatin, 5 mg/L leupeptin) at high speed. The mixture was centrifuged for 10 min at 1000 × g at 4 °C; the supernatant was collected and re-centrifuged for 10 min at 10,000 × g at 4 °C to obtain the target supernatant. The target supernatant that contained cytoplasmic tyrosine kinase was collected, separately packed and stored at −70 °C.
# PTK activity was determined by the ELISA method. In brief, the concentrations of PTKs used to construct calibration curves were as follows: 600, 500, 341, 200 and 100 × 10^−7 U/mL for PTK. 100 μL of 20 mg/L PGT (Sigma Aldrich) in 20 mmol/L PBS solution was added to 96-well microtiter plates at 37 °C overnight. After removing excess substrate solution, PBS–Tween 20 (PBST) was used to wash the wells one time, which were dried for 2 h at 37 °C and kept at 4 °C. Subsequently, 50 μL of the above PTK extraction (50 mmol/L HEPES, pH 7.4, 20 mmol/L MgCl2, 0.1 mmol/L MnCl2, 0.2 mmol/L Na3VO4, 0.6 mmol/L ATP) was added to the 96-well plates. Then, a certain concentration of the tested compounds (10 μL) and tyrosine kinase tissue extract solution were incubated at 37 °C for 1 h. The plate was washed three times with PBST at the end of the treatment, and 100 μL of the diluted horseradish-peroxidase-labeled mouse anti-phosphotyrosine monoclonal antibody IgG2bk (Sigma Aldrich) was added to each well, and incubated at 37 °C for 30 min. After removal of the antibody complex, and then washing three times with PBST, 100 μL freshly prepared TMB horseradish peroxidase color development solution (Beijing 4A Biotech Co., Ltd, China) was added and protected from light for 10 min. The reaction was terminated by addition of 100 μL/well 1 N sulfuric acid. Absorbance was measured at 450 nm in a microplate reader (SpectraMax M5).
melting point [°C],IC50 [1] [µM],SMILES,PTK inhibitory activity (in words) [1]
77 to 79,,"COc1ccc(C(=O)c2ccccc2F)cc1OC [Compound 1a, 2-fluoro-3′,4′-dimethoxyl benzophenone]",
149 to 150,> 50,"O=C(c1ccc(O)c(O)c1)c1ccccc1F [Compound 1c, 2-fluoro-3′,4′-dihydroxyl benzophenone]",
91 to 92,> 50,"Oc1ccc(Cc2ccccc2F)cc1O [Compound 1d, 2-fluoro-3′,4′-dihydroxyl diphenylmethane]",
103 to 105,,"COc1ccc(C(=O)c2cccc(F)c2)cc1OC [Compound 2a, 3-fluoro-3′,4′-dimethoxyl benzophenone]",
104 to 106,> 50,"O=C(c1cccc(F)c1)c1ccc(O)c(O)c1 [Compound 2c, 3-fluoro-3′,4′-dihydroxyl benzophenone]",
66 to 68,> 50,"Oc1ccc(Cc2cccc(F)c2)cc1O [Compound 2d, 3-fluoro-3′,4′-dihydroxyl diphenylmethane]",
101 to 103,,"COc1ccc(C(=O)c2ccc(F)cc2)cc1OC [Compound 3a, 4-fluoro-3′,4′-dimethoxyl benzophenone]",
155 to 157,> 50,"O=C(c1ccc(F)cc1)c1ccc(O)c(O)c1 [Compound 3c, 4-fluoro-3′,4′-dihydroxyl benzophenone]",
59 to 61,> 50,"Oc1ccc(Cc2ccc(F)cc2)cc1O [Compound 3d, 4-fluoro-3′,4′-dihydroxyl diphenylmethane]",
143 to 145,,"COc1ccc(C(=O)c2ccccc2I)cc1OC [Compound 4a, 2-iodo-3′,4′-dimethoxyl benzophenone]",
186 to 188,> 50,"O=C(c1ccc(O)c(O)c1)c1ccccc1I [Compound 4c, 2-iodo-3′,4′-dihydroxyl benzophenone]",
130 to 132,> 50,"Oc1ccc(Cc2ccccc2I)cc1O [Compound 4d, 2-iodo-3′,4′-dihydroxyl diphenylmethane]",
,> 50,O=C(c1ccc(O)c(O)c1)c1c(Br)c(O)c(O)c(O)c1Br [Compound 5c],no activity
,> 50,Oc1ccc(Cc2c(Br)c(O)c(O)c(O)c2Br)cc1O [Compound 5d],no activity
,2.97,O=C(c1ccc(O)c(O)c1)c1c(Cl)c(O)c(O)c(O)c1Cl [Compound 6c],stronger activities than that of genistein
,3.96,Oc1ccc(Cc2c(Cl)c(O)c(O)c(O)c2Cl)cc1O [Compound 6d],stronger activities than that of genistein

melting point [°C],IC50 [1] [µM],SMILES,PTK inhibitory activity (in words) [1]
,> 50,O=C(c1ccc(O)c(Br)c1)c1cc(O)c(O)cc1Br [Compound 7c],no activity
,6.34,Oc1cc(Br)c(Cc2ccc(O)c(Br)c2)cc1O [Compound 7d],stronger activities than that of genistein
,17.7,O=C(c1ccc(O)c(O)c1)c1ccccc1Cl [Compound 8c],
,14.8,Oc1ccc(Cc2ccccc2Cl)cc1O [Compound 8d],
,17.8,O=C(c1cccc(Cl)c1)c1ccc(O)c(O)c1 [Compound 9c],
,12.9,Oc1ccc(Cc2cccc(Cl)c2)cc1O [Compound 9d],stronger activities than that of genistein
,41.6,O=C(c1ccc(Cl)cc1)c1ccc(O)c(O)c1 [Compound 10c],
,6.97,Oc1ccc(Cc2ccc(Cl)cc2)cc1O [Compound 10d],stronger activities than that of genistein
,16,O=C(c1ccccc1)c1cc(O)c(O)cc1Br [Compound 11c],
,6.26,Oc1cc(Br)c(Cc2ccccc2)cc1O [Compound 11d],stronger activities than that of genistein
,> 50,O=C(c1ccccc1)c1cc(O)c(O)c(Br)c1Br [Compound 12c],
,> 50,Oc1cc(Cc2ccccc2)c(Br)c(Br)c1O [Compound 12d],
,> 50,O=C(c1cc(Br)ccc1O)c1cc(O)c(O)cc1Br [Compound 13c],no activity
,5.05,Oc1cc(Br)c(Cc2cc(Br)ccc2O)cc1O [Compound 13d],stronger activities than that of genistein
,13.6,"O=c1c(-c2ccc(O)cc2)coc2cc(O)cc(O)c12 [Genistein, genistein, reference compound]",
